Measured values taken from patent US10294530B2, “Biomarker FOXF2 for gastric cancer” (The Chinese University of Hong Kong, priority 2016, dated 2019).

Test system: FOXF2 expression
Test: Demethylation treatment, FOXF2 expression by semi-quantitative PCR
Assay type: cell-based, human
Protocol: Semi-quantitative PCR was performed in a total volume of 20 μL reaction containing GeneAmp 1×PCR Buffer II (Applied Biosystems), 2.5 mM MgCl2, 200 μM each of dNTP, 200 nM each of primers, 0.4 U of AmpliTaq Gold DNA polymerase (Applied Biosystems) and 30˜50 ng cDNA. The PCR program started with an initial denaturation at 94° C. for 10 min, followed by 32-35 cycles (94° C. for 30 sec, annealing temperature for 30 sec, and 72° C. for 30 sec) of amplification, with a final extension at 72° C. for 10 min. The PCR bands were visualized under ultraviolet light and photographed. The expression of the target gene was normalized by the expression of house-keeping gene β-actin, which served as an internal control.
Cells were seeded at a density of 1×10^5/100-mm dishes and grew for 24 hours. Cells were then treated with 2 μM 5-aza-2′-deoxycytidine (“5-Aza”) (Sigma-Aldrich) for 5 days. The 5-Aza was replenished every day. The gene expression of FOXF2 was evaluated using semi-quantitative PCR.

In the case of `Nc1ncn([C@H]2C[C@H](O)[C@@H](CO)O2)c(=O)n1` [5-Aza, 5-aza-2′-deoxycytidine], the FOXF2 expression (AGS, 2 μM 5-Aza for 5 days) is reported as “restored”, the FOXF2 expression (MKN28, 2 μM 5-Aza for 5 days) is reported as “restored” and the FOXF2 expression (MKN45, 2 μM 5-Aza for 5 days) is reported as “restored”. For the same compound, the FOXF2 expression (MKN74) was “insufficient”, the FOXF2 expression (NCL-N87, 2 μM 5-Aza for 5 days) was “restored” and the FOXF2 expression (SNU719, 2 μM 5-Aza for 5 days) was “restored”.
